Laboratory results: patent US11524960B2, “Heterobicyclic inhibitors of MAT2A and methods of use for treating cancer” (AGIOS PHARMACEUTICALS, INC., priority 2018, dated 2022)
pIC50: −log10 of the molar value.

Tests used:
[1] = test system: HCT116 MTAP−/−; experiment: Inhibition of cellular proliferation (Cell Titer Glo), HCT116 MTAP−/−; format: cell-based, human; conditions: Homo sapiens, HCT-116, 96 h, 4 days, IC50 score, read-out: 4 Day Relative Growth Inhibition (MTAP −/−; Example 277)
Experimental: (§1) Test compound impact on cancer cell growth was assessed by treating cancer cells with compound for 4 days and then measuring proliferation using an ATP-based cell proliferation readout (Cell Titer Glo, Promega Corporation).
(§2) In a typical assay an isogenic pair of HCT116 human colon carcinoma cell lines which vary only in MTAP deletion status (HCT116 MTAP+/+ and HCT116 MTAP−/−) were plated in 96-well dishes at appropriate cell density. Following 24 hours, cells were then treated with the candidate MAT2A inhibitor. Prior to addition to cells, the compound was first serially diluted in 100% DMSO, typically as a 3-fold serial dilution starting at 500× top dose with 10 dose points including DMSO only control. Compound was then transferred to a working stock plate in cell culture media by adding 5 μl of compound in DMSO to 495 μl of cell culture media. This working stock was then added to cells via a further 5-fold dilution, by adding 25 μl of working stock to 100 μl of cells in culture media. Following compound addition, cells were incubated at 37° C./5% C02 for 4 days.
(§3) To measure inhibition of cellular proliferation, cells were allowed to equilibrate to room temperature for 30 minutes, and were then treated with 125 μl of Cell Titer Glo reagent. The plate was then covered with aluminum foil and shaken for 15 minutes to ensure complete mixing and full cell lysis. Luminescent signal was then measured using a plate-based luminometer Veritas version 1.9.2 using ATP standard curve to confirm assay reproducibility from run to run. This luminescence measure was converted to a proliferation index by subtracting from each data point the ATP luminescence signal measured from a bank (no cells) well and dividing by the ATP luminescence signal measured in 0.2% DMSO control well adjusted for signal in blank well. Compound activity was then represented as a percentage change in proliferation relative to a within-plate DMSO control against log10 of compound concentration in molar (M) units.

[2] = target: T1, MAT2A homodimer (Homo sapiens, UniProt P31153); experiment: Biochemical assay: inhibition of MAT2A (phosphate release, PiColorLock Gold); conditions: MAT2A IC50 score; read-out: Enzyme Inhibition (Example 275)
T1 construct: inferred from Ni sepharose purification and imidazole elution; made in house; host or cells: Sf9 insect cells, recombinant baculovirus (Bac to Bac, pFASTBAC1)
Method in brief: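 Baculovirus/Sf9-expressed, Ni-purified MAT2A at 4 µg/mL was preincubated with compound for 60 min at 25 °C in 50 mM Tris pH 8.0, 50 mM KCl, 15 mM MgCl2, 0.3 mM EDTA, 0.005% BSA. Substrate mix (500 μM ATP, 400 μM L-methionine) was added and the reaction ran 60 min at 25 °C. Phosphate released stoichiometrically with SAM was measured colorimetrically against a phosphate standard curve.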

[3] = test system: HCT116 MTAP+/+; experiment: Inhibition of cellular proliferation (Cell Titer Glo), HCT116 MTAP+/+; format: cell-based, human; conditions: Homo sapiens, HCT-116, 96 h, 4 days, IC50 score, read-out: 4 Day Relative Growth Inhibition (MTAP +/+; Example 277)
Experimental: as §1, §2, §3

[4] = test system: SAM in HCT116 human colon carcinoma cell line engineered to delete the MTAP gene (MTAP −/−); experiment: Cellular assay of target engagement (SAM) by LC-MS/MS; format: cell-based; conditions: Homo sapiens, HCT-116, 72 h, IC50 score, read-out: Cell 72 h SAM Inhibition (MTAP −/−; Example 276)
Experimental: Measurement of MAT2A activity in cells was made by direct quantitation of the abundance of the product of its enzymatic activity, SAM. Cancer cells were treated with candidate MAT2A inhibitors for a suitable incubation period, and the cells were then lysed using a reagent which quenched any further enzyme activity. Soluble metabolites including SAM were collected and SAM itself was directly measured from the lysate using quantitative LC-MS/MS.
A typical assay was performed using an HCT116 human colon carcinoma cell line which was genetically engineered to delete the MTAP gene (commercially available from Horizon Discovery). This cell line was utilized because it was determined that loss of the MTAP gene predicts sensitivity to MAT2A inhibitors. Cells were plated in 96-well dishes at appropriate cell density. Following 24 hours, cells were then treated with the candidate MAT2A inhibitor. Prior to addition to cells, the compound was first serially diluted in 100% DMSO, typically as a 3-fold serial dilution starting at 500× top dose with 10 dose points including DMSO only control. Compound was then transferred to a working stock plate in cell culture media by adding 5 μl of compound in DMSO to 495 μl of cell culture media. This working stock was then added to cells via a further 5-fold dilution, by adding 25 μl of working stock to 100 μl of cells in culture media. Following compound addition, cells were incubated at 37° C./5% CO2 for 72 hrs.
To quantitate SAM levels following compound treatment, cells were gently washed once in Ammonium Carbonate buffer (75 mM at pH 7.4), placed on dry ice, and lysed with metabolite extraction buffer (80% cold methanol and 20% water (v/v) with acetic acid at 1 M final concentration with 200 ng/mL deuterated d3-SAM as internal control). Following centrifugation at 4° C. at 3,200 rpm for 30 minutes, the supernatant was collected and stored at −80° C. until analysis by Liquid Chromatography with tandem Mass Spectrometry (LC-MS/MS). LC-MS/MS analysis was performed using an API6500 Mass Spectrometer (Sciex, Framingham, Mass., USA) operating in positive ion spray mode and equipped with a Waters UPLC Acquity (Waters, Milford, Mass., USA) BEH Amide column. Multiple Reaction Monitoring data was acquired for SAM and the d3-SAM standard, using a mass transition pair at m/z 399.2→250.1 and 402.2→250.1, respectively. In a typical LC-MS/MS analysis, the initial flow rate was 0.5 ml/min of 25% mobile phase A (acetonitrile and water at 5:95 (v/v) with 1% formic acid and 10 mM ammonium acetate) and 75% mobile phase B (acetonitrile and water at 95:5 (v/v) with 1% formic acid and 10 mM ammonium acetate), 0.2-0.5 minutes with 75%-35% mobile phase B, 25%-65% mobile phase A, at 0.5 min 65% mobile phase A and 35% mobile phase B, 1.0-1.1 minutes with 35%-75% mobile phase B, 65%-25% mobile phase A, at 1.1 min 25% mobile phase A and 75% mobile phase B with a total run time of 1.5 minutes.

T1 sequence (P31153 whole entry): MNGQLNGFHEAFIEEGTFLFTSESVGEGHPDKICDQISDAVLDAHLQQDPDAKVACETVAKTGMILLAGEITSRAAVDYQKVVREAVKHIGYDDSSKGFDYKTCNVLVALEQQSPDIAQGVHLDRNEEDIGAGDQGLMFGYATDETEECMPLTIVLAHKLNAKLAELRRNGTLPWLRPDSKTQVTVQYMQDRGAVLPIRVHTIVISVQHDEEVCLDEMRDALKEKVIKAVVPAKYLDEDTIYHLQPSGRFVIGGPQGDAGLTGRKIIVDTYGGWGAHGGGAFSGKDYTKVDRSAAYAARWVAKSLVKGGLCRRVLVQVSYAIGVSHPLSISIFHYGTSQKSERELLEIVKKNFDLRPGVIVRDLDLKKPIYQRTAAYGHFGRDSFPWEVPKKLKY

Row | SMILES | pIC50 [1] | pIC50 [2] | pIC50 [3] | pIC50 [4]
1 | Cn1cnc2ccc(-n3cc4cnc(NCC(F)(F)F)nc4c(-c4ccc(Cl)cc4)c3=O)cc21 [Example 135, 8-(4-chlorophenyl)-6-(1-methyl-1H-benzo[d]imidazol-6-yl)-2-(2,2,2-trifluoroethylamino)pyrido[4,3-d]pyrimidin-7(6H)-one] | > 7.00 | > 7.00 | 5.00 to 7.00 | > 7.00
2 | CN(C)CCn1cc2cc(-n3cc4cnc(NCC(F)(F)F)nc4c(-c4ccc(Cl)cc4)c3=O)ccc2n1 [Example 137, 8-(4-chlorophenyl)-6-(2-(2-(dimethylamino)ethyl)-2H-indazol-5-yl)-2-((2,2,2-trifluoroethyl)amino)pyrido[4,3-d]pyrimidin-7(6H)-one] | 5.00 to 7.00 | > 7.00 | < 5.00 | 6.00 to 7.00
3 | CCOc1ccc2cn(-c3ccc4nn(C)cc4c3)c(=O)c(-c3ccc(CF)nc3)c2n1 [Example 137-A, 2-ethoxy-8-(6-(fluoromethyl)pyridin-3-yl)-6-(2-methyl-2H-indazol-5-yl)-1,6-naphthyridin-7(6H)-one] | > 7.00 | > 7.00 | 5.00 to 7.00 | > 7.00
4 | Cn1cc2cc(-n3cc4ccc(CCC(F)(F)F)nc4c(-c4ccc(Cl)cc4)c3=O)ccc2n1 [Example 138-A, 8-(4-chlorophenyl)-6-(2-methyl-2H-indazol-5-yl)-2-(3,3,3-trifluoropropyl)-1,6-naphthyridin-7(6H)-one] | 5.00 to 7.00 | > 7.00 | 5.00 to 7.00 | 6.00 to 7.00
5 | O=c1c(-c2ccc(Cl)cc2)c2nc(NCC(F)(F)F)ncc2cn1-c1ccc2ncccc2c1 [Example 139, 8-(4-chlorophenyl)-6-(quinolin-6-yl)-2-((2,2,2-trifluoroethyl)amino)pyrido[4,3-d]pyrimidin-7(6)-one] | 5.00 to 7.00 | > 7.00 | < 5.00 | > 7.00
6 | Cn1cc2cc(-n3cc4ncc(OCC(F)F)nc4c(-c4ccc(OC(F)F)cc4)c3=O)ccc2n1 [Example 139-A, 2-(2,2-difluoroethoxy)-8-(4-(difluoromethoxy)phenyl)-6-(2-methyl-2H-indazol-5-yl)pyrido[3,4-b]pyrazin-7(6H)-one] | > 7.00 | > 7.00 | 5.00 to 7.00 | > 7.00
7 | CCOc1cnc2cn(-c3ccc4nn(C)cc4c3)c(=O)c(-c3ccc(OC)cc3)c2n1 [Example 140-A] | > 7.00 | > 7.00 | < 5.00 | > 7.00
8 | CCn1cnc2ccc(-n3cc4cnc(NCC(F)(F)F)nc4c(-c4ccc(Cl)cc4)c3=O)cc21 [Example 141, 8-(4-chlorophenyl)-6-(1-ethyl-1H-benzo[d]imidazol-6-yl)-2-((2,2,2-trifluoroethyl)amino)pyrido[4,3-d]pyrimidin-7(6H)-one] | > 7.00 | > 7.00 | < 5.00 | > 7.00
9 | COc1ccc(-c2c(=O)n(-c3ccc4nn(C)cc4c3)cc3ncc(OCC(F)F)nc23)cc1 [Example 141-A] | > 7.00 | > 7.00 | 5.00 to 7.00 | > 7.00
10 | CCOc1cnc2cn(-c3ccc4ncccc4c3)c(=O)c(-c3ccc(Cl)cc3)c2n1 [Example 142-A] | 5.00 to 7.00 | > 7.00 | < 5.00 | 6.00 to 7.00
11 | COc1ccc(-c2c(=O)n(-c3ccc4nccn4c3)cc3cnc(NCC(F)(F)F)nc23)cc1 [Example 143, 6-(imidazo[1,2-a]pyridin-6-yl)-8-(4-methoxyphenyl)-2-((2,2,2-trifluoroethyl)amino)pyrido[4,3-d]pyrimidin-7(6H)-one] | 5.00 to 7.00 | > 7.00 | < 5.00 | 6.00 to 7.00
12 | Cn1cc2cc(-n3cc4ncc(OCC(F)F)nc4c(-c4ccc(OC(F)(F)F)nc4)c3=O)ccc2n1 [Example 143-A] | > 7.00 | > 7.00 | 5.00 to 7.00 | > 7.00
13 | COc1ccc(-c2c(=O)n(-c3ccc4nccnc4c3)cc3cnc(NCC(F)(F)F)nc23)cc1 [Example 144, 8-(4-methoxyphenyl)-6-(quinoxalin-6-yl)-2-((2,2,2-trifluoroethyl)amino)pyrido[4,3-d]pyrimidin-7(6H)-one] | 5.00 to 7.00 | > 7.00 | < 5.00 | 6.00 to 7.00
14 | Cn1cc2cc(-n3cc4ncc(OCC(F)F)nc4c(-c4ccc(OC(F)F)nc4)c3=O)ccc2n1 [Example 144-A] | 5.00 to 7.00 | > 7.00 | 5.00 to 7.00 | > 7.00
15 | COc1ccc(-c2c(=O)n(-c3ccc4c(c3)N(C)CCO4)cc3cnc(NCC(F)(F)F)nc23)cc1 [Example 145, 8-(4-methoxyphenyl)-6-(4-methyl-3,4-dihydro-2H-benzo[b][1,4]oxazin-6-yl)-2-((2,2,2-trifluoroethyl)amino)pyrido[4,3-d]pyrimidin-7(6H)-one] | > 7.00 | > 7.00 | < 5.00 | > 7.00
16 | CCOc1cnc2cn(-c3ccc4nn(C)cc4c3)c(=O)c(-c3ccc(OC(F)F)cc3)c2n1 [Example 145-A] | > 7.00 | > 7.00 | 5.00 to 7.00 | > 7.00
17 | Cn1cc2cc(-n3cc4ncc(OCC(F)F)nc4c(-c4ccc(Cl)cc4)c3=O)ccc2n1 [Example 146-A] | > 7.00 | > 7.00 | 5.00 to 7.00 | > 7.00
18 | COc1ccc(-c2c(=O)n(-c3ccc4c(c3)CCO4)cc3cnc(NCC(F)(F)F)nc23)cc1 [Example 147, 6-(2,3-dihydrobenzofuran-5-yl)-8-(4-methoxyphenyl)-2-((2,2,2-trifluoroethyl)amino)pyrido[4,3-d]pyrimidin-7(6H)-one] | 5.00 to 7.00 | > 7.00 | < 5.00 | 6.00 to 7.00
19 | CCOc1cnc2cn(-c3ccc4nn(C)cc4c3)c(=O)c(-c3ccc(Cl)cc3)c2n1 [Example 147-A] | > 7.00 | > 7.00 | < 5.00 | > 7.00
